# Laboratory results as given in US20200289474A1, “METHODS OF TREATING PAIN WITH A THIAZOLINE ANTI-HYPERALGESIC” (priority 2019, published 2020).
# Assays:
# Assay type in all cases: in vivo, rat
# [1] = tested on: STZ-induced mechanical allodynia; experiment: STZ-induced diabetic rats, subsequent study
# Protocol: (§1) Experiments were conducted to determine the effect of Compound 1 in streptozotocin (STZ)-induced diabetic rats. In the first experiment, after obtaining mechanical threshold baselines, STZ (50 mg/kg IV) was administered (Day −7). Two days later, blood glucose levels were measured and animals that were hyperglycemic (>250 mg/dL) continued in the study. On Day 0 the baseline for mechanical thresholds prior to dosing with test articles was established for the rats. Compound 1 (10, 30, and 100 mg/kg PO), gabapentin (100 mg/kg PO) or vehicle was then administered daily for 5 days. On Day 0 mechanical thresholds were obtained at 1, 3, and 6 h post-dose. On Day 1 mechanical thresholds were measured immediately prior to dosing and then 3 h post-dose. The same regimen was followed on Day 3.
# In a subsequent study, the same STZ paradigm was followed. However, in addition to the 100 mg/kg Compound 1 group, two additional cohorts received the Compound 1 100 mg/kg dose split into two or three doses per day with 50 mg/kg BID and 33 mg/kg TID. In addition to the gabapentin (100 mg/kg PO) group, a separate cohort received duloxetine (30 mg/kg PO). Additionally, in this study mechanical threshold testing was implemented every day immediately prior to dosing and 2 h post-dose for 7 days.
# [2] = tested on: STZ-induced mechanical allodynia; experiment: streptozotocin (STZ)-induced diabetic rats, first experiment; details: gabapentin 100 mg/kg PO daily; 1 h post-dose Day 0 and all time points thereafter
# Protocol: FIG. 14 illustrates non-limiting reversal of mechanical hypersensitivity by Compound 1 in a diabetic neuropathy model, in accordance with various embodiments. Streptozotocin (STZ) destroys insulin-producing cells and generates a diabetic phenotype in […]. Animals were dosed with STZ on day −7. By day 0 animals are hyperglycemic and hyperalgesic (day 0 BL).
# as §1
# [3] = tested on: incision-induced hyperalgesia; experiment: Brennan protocol, treatment paradigm (established hyperalgesia); details: morphine 3 mg/kg SC
# Text: Two incisional pain models were used to assess Compound 1 effects on hyperalgesia. The first model is referred to as the Brennan model in which, under anesthesia, a 1 cm longitudinal incision to the skin and underlying fascia of a rat hindpaw is made. The second is a variation but is a more invasive procedure in which the skin and muscle are spread apart using forceps which creates a longer-lasting hypersensitivity.
# Using the Brennan protocol and a treatment paradigm in rat, Compound 1 (10 and 30 mg/kg PO), morphine (3 mg/kg SC) or vehicle were administered daily at 24 h post-incision, and again at 48 and 72 h post-incision. Mechanical thresholds were obtained at 1 h and 2 h post-dose in all cohorts on all days.
smiles,measurement,setting,value
"CNCC[C@H](Oc1cccc2ccccc12)c1cccs1 [duloxetine, reference compound]",reversal of allodynia,[1]; duloxetine 30 mg/kg PO,required successive doses for appreciable activity
"NCC1(CC(=O)O)CCCCC1 [gabapentin, reference compound]",reversal of allodynia (mechanical thresholds),[2],significant reversal of allodynia
same,reversal of allodynia,"[1]; gabapentin 100 mg/kg PO, throughout the study",robustly reversed the allodynia
CN1CC[C@]23c4c5ccc(O)c4O[C@H]2[C@@H](O)C=C[C@H]3[C@H]1C5 [morphine],mechanical threshold,"[3]; Day 1, 1 h post-dose (baseline 35 g)",45 g
same,analgesic effect,"[3]; Day 1, 2 h post-dose",this effect waned
same,hyperalgesia,"[3]; Day 2, 1 h",not hyperalgesic
same,hyperalgesia,"[3]; Day 2, 2 h",mild hyperalgesia
same,mechanical threshold,[3]; Day 2 prior to dosing,< 15 g
